Values quoted from earlier work, collected in patent US8883830B2, “Topical therapy for the treatment of migraines, muscle sprains, muscle spasms, spasticity and related conditions” (Afgin Pharma LLC., priority 2003, dated 2014).

Legend:
[1] = relative to ergotamine

Row | Structure (SMILES) | emetic activity compared with ergotamine [1] | oral bioavailability [%]
1 | CN1C[C@H](C(=O)N[C@]2(C)O[C@@]3(O)[C@@H]4CCCN4C(=O)[C@H](Cc4ccccc4)N3C2=O)C[C@@H]2c3cccc4[nH]cc(c34)C[C@H]21 [Dihydroergotamine] | about 12 times less active | 
2 | CNS(=O)(=O)CCc1ccc2[nH]cc(C3CCN(C)CC3)c2c1 [naratriptan] |  | ~70
